{
  "source": "patent US20260256922A1",
  "about": "“PRODRUGS USEFUL FOR REDUCING ANTHRACYCLINE CARDIOTOXICITY” (WAKE FOREST UNIVERSITY HEALTH SCIENCES, priority 2022, published 2026)",
  "key": {"[1]": {"assay": "Time-dependent DOX release from prodrugs in presence of H2O2 (LCMS)", "type": "physicochemical", "settings": "prodrug 10 μM, H2O2 10 μM, ammonium bicarbonate buffer 0.1 M pH 7.4, room temperature, over two hours", "procedure": "FIG. 1. Time-course for DOX release from prodrugs (10 μM) in ammonium bicarbonate buffer (0.1 M, pH 7.4) at room temperature and in the presence of H2O2 (10 μM). A calibration curve was used to determine the concentration of free DOX at each time point by LCMS. Plotted as the mean±standard error of the mean (SEM) from three independent experiments.\nTo confirm this reactivity, we incubated c1 (10 μM) with H2O2 (10 μM) at room temperature in ammonium bicarbonate buffer (0.1 M, pH 7.4). At various time points, an aliquot was removed and analyzed by LCMS. Using a calibration curve, we determined the percentage of released DOX over the course of two hours. […] For comparison, we also assessed the reactivity of c2 towards the same concentration of peroxides. Like c1, c2 also functioned as an H2O2-activated DOX prodrug, but with faster kinetics, as quantitative release of free DOX was realized within 60 min.\nA stock solution of c1 (or c2, 10 mM) in DMSO and H2O2 (10 mM) in ammonium bicarbonate buffer (0.1M, pH 7.4) were prepared immediately prior to use. […] At various time points (0 min, 10 min, 35 min, 60 min, 80 min, 100 min, 120 min), a 1 mL (inject volume 60 μL) aliquot was removed and analyzed by LC-MS (using a C18 analytical column and eluting at 0.4 mL/min with a linear gradient (20-90% v/v) MeOH/H2O (0-2 min), followed by 90% v/v MeOH/H2O (2-19 min)). […]"}, "H9C2 cardiomyoblasts": {"test_system": "H9C2 cardiomyoblasts", "assay": "Uptake into H9C2 cardiomyoblasts by live-cell confocal microscopy", "type": "cell-based, rat", "procedure": "FIG. 4. Uptake of DOX and prodrugs c1 and c2 by H9C2 cardiomyoblasts. H9C2 cells cultures grown overnight on chambered coverslips in media with 10% serum were switched to Fluorobrite DMEM imaging media supplemented with 5% serum and prepared for live-cell imaging on a Zeiss LSM 880 confocal microscope, then 10 µM of c1, c2, or DOX was added and images were taken every 10 min (averaged every 30 min) for 18 h. Approximately 20 cells present in each field of view were averaged for each sample and time point; normalized and averaged data from two replicates each±SEM were included for c1 and DOX. An earlier independent trial yielded very similar results (Fig. S1).\nUptake of DOX and prodrugs into H9C2 cardiomyoblasts. Before comparing the biological effects of treatments by DOX and prodrugs, it was important to know their time dependence of accumulation into the H9C2 cardiomyoblasts under investigation. For this, confocal microscopy of live cells in culture was used to track in real time the accumulation of the fluorescent molecules into the cells, allowing direct comparisons between c1, c2 and Dox. […] Thus, any biological effects observed using c1 rather than DOX will not be due to limited cellular uptake.\nTo evaluate drug uptake, H9C2 cells were plated at a density of 20,000 per well on 24 well #1.5 polymer chambered coverslips (Ibidi) in media including 10% FBS and allowed to adhere for ~20 h. Prior to imaging analysis, the media was replaced with Fluorobrite DMEM imaging media (Gibco) supplemented with 5% FBS. To 1 mL of media in each well was added either vehicle (DMSO), or a 20 mM stock solution of c1, c2, or DOX to give final concentrations of 10 or 20 µM drug and 0.1% DMSO. […] DOX and the prodrugs were detected with excitation by a 458 nm laser at 0.3% and emission from 535-648 nm.\nEach position consisted of a 3 slice z-stack that was compressed with a maximum intensity projection for analysis. […] The mean intensity for both channels was calculated, normalized, and then averaged to 30 min time points."}, "Nrf2": {"test_system": "Nrf2", "assay": "Nrf2 and HO-1 immunoblots in H9C2 cells", "type": "cell-based, rat", "settings": "H9C2, relative to DMSO vehicle", "excerpt": "The bar graphs below represent the mean±SEM. Results were statistically different between c1 and DOX in both cases (p=0.002 and p=0.019), and more marginally so between c1 and DMSO (p=0.011 and p.=0.025), for Nrf2 and HO-1, respectively."}, "[2]": {"test_system": "4T1 mouse breast cancer cells", "assay": "LDH release cytotoxicity assay in 4T1 cells", "type": "cell-based", "settings": "10 or 20 μM, 24 or 48 h, other than the lowest dose and shortest time", "excerpt": "FIG. 8. Cytotoxicity of DOX and prodrugs in 4T1 mouse breast cancer cells.\nDOX is a known cytotoxic agent used against 4T1 triple-negative breast cancer cells grown in culture or injected orthotopically into mouse mammary fat pads to initiate the development of tumors.^52,53 As an initial test to see if c1 could retain the cytotoxic properties of DOX toward tumor-forming 4T1 cells, we conducted LDH assays to assess cytotoxicity of DOX, c1 and c2 treatments."}},
  "note": "Entries after “also recorded” stand apart in the source; their conditions may differ.",
  "data": [
    {"compound": "COc1cccc2c1C(=O)c1c(O)c3c(c(O)c1C2=O)C[C@@](O)(C(=O)CO)C[C@@H]3O[C@H]1C[C@H](NC(=S)OCc2ccc(B3OC(C)(C)C(C)(C)O3)cc2)[C@H](O)[C@H](C)O1", "note": "[c1]", "values": [
      {"measurement": "percentage of released DOX", "setting": "[1]", "value": "greater than 70%"},
      {"measurement": "time to maximal signal (cell accumulation)", "setting": "H9C2 cardiomyoblasts; H9C2 cells, 10 μM, fluorescence", "value": "~ 2 h"},
      {"measurement": "accumulation in cells compared with DOX", "setting": "H9C2 cardiomyoblasts; imaging over 18 h", "value": "accumulated rapidly"},
      {"measurement": "HO-1 expression (immunoblot)", "setting": "Nrf2", "value": "largely preserved Nrf2 activation and HO-1 expression; also recorded: only moderately suppressive"},
      {"measurement": "Nrf2 activation (immunoblot)", "setting": "Nrf2", "value": "largely preserved Nrf2 activation and HO-1 expression; also recorded: only moderately suppressive"},
      {"measurement": "cytotoxicity (LDH release)", "setting": "[2]", "value": "comparable, sometimes less and sometimes more, toxicity relative to DOX"}
    ]}
  ]
}
